Measured values from US20070059385A1, “Safe pharmaceutical composition for treating and preventing cancer and method of use” (priority 2005, published 2007).

Experiment: Metabolism (organ and blood radioactivity) of [^3H]-HHT in P388 mice
Type: in vivo
Settings: blood
Protocol: Animals: Adult DBA/2J male mice, 6 to 8 weeks old. All animals weighed approximately 25 g when used in experiments. Each member of which received identical dosed (i.p.) of HHT.
Tumor: P388 leukemic cells induced in mice by inoculation with L1210 or P388 leukemic cells ([…]).
After P388 induced in mice 5 days, 1 mg/kg of [^3H]-HHT (100 μC/mg) was injected to mice. Volumes were 0.01 ml/g body weight. […] The key data of HHT in metabolism process are determined counts per minute (CPM) of [^3H]-HHT in organs. CPM is determined by liquid scintillation counting (LSC). The methods of LSC combined with radioactive of [^3H]-HHT can be determined using a tracer of HHT in organs. After killed animals, organs and blood were obtained from P388 mice. Organs were weighted. 10 mg of organs were digested. 10 ml of scintillation solution (which containing […]) were added to digested solution and determined at LSC. Other processes are similar to the standard method.

## COC(=O)C[C@](O)(CCCC(C)(C)O)C(=O)O[C@@H]1C(OC)=C[C@]23CCCN2CCc2cc4c(cc2[C@H]13)OCO4 [[^3H]-HHT]
1 h
  [^3H]-HHT in blood: 1820 CPM
2 h
  [^3H]-HHT in blood: 1650 CPM
4 h
  [^3H]-HHT in blood: 1100 CPM
8 h
  [^3H]-HHT in blood: 920 CPM
16 h
  [^3H]-HHT in blood: 428 CPM
24 h
  [^3H]-HHT in blood: 150 CPM
